Laboratory results: ChEMBL document CHEMBL1158049, “Bisindole alkaloids from myxomycetes Arcyria denudata and Arcyria obvelata” (J Nat Prod, 2006)
Converted amounts (≈) assume the structure as drawn.

Tested on: Jurkat
Assay: Cytotoxicity against human Jurkat cells after 42 hrs by alamar blue assay
Assay type: functional, cell-based

| Structure (SMILES) | IC50 [µg/mL] |
| --- | --- |
| O=C1NC(=O)C(c2c[nH]c3cc(O)ccc23)=C1c1c[nH]c2ccccc12 [ARCYRIARUBIN B] | 10 (≈ 29.1 µM) |
| O=C1NC(=O)C(c2c[nH]c3cc(OS(=O)(=O)O)ccc23)=C1c1c[nH]c2ccccc12 | > 25 |
| O=C1NC(=O)[C@H]2c3c[nH]c4cccc(c34)-c3[nH]c4ccccc4c3[C@@H]12 [DIHYDROARCYRIACYANIN A] | 7 (≈ 21.4 µM) |
| O=C1NC(=O)C2=C1c1c([nH]c3cc(O)ccc13)Oc1cccc3[nH]cc2c13 [ARCYROXOCIN B] | 7 (≈ 19.6 µM) |
